Each block holds one compound with its values, some of them ahead of it.
Key:
[1] = test system: Aβ42 production; assay: Sandwich ELISA measurement of Aβ42 levels in supernatant of treated N2a-APP695 cells; format: cell-based, Mouse
Method: (§1) Mouse neuroblastoma cells (N2a cells) or N2a-APP695 cells (N2a cell line stably transfected with APP695, an amyloid precursor protein) were cultured in an essential medium composed of Dulbecco's minimal essential medium (DMEM) and of OptiMEM® (1:1, v/v) (Gibco®) containing 0.2 mg/mL Geniticin (Geneticin® Selective Antibiotic, Gibco®) and 5 % fetal bovine serum (FBS, Gibco®, EU approved origin) in a humidified, 5% CO2 incubator at 37°C. Routinely, cells were split without use of Trypsin every 4/5 days. They were first rinsed with PBS (Gibco) and detached from the plate bottom using 4 mL Versene (Gibco) at room temperature for 3-4 min. 8 mL of fresh medium were added to the cell suspension, and the mix was centrifuged for 3 min at 1,000 rpm. The cell pellet was resuspended in fresh medium before seeding (1/10 dilution) in new flasks.
The N2a-APP695 cells were seeded at 10.000 cells/well in a 96 well plate with modified media (0.5% FBS) and incubated overnight. Cells were treated with fresh media comprising different compounds according to the invention (equal quantity of DMSO sold by Sigma®). They were then incubated for 18h in a humidified, 5% CO2 incubator.
Purines according to the invention were added at various concentrations to N2a-APP695.
The plate was finally centrifuged to remove cell fragments before collecting supernatant samples for amyloids levels determination.
(§2) Then, Aβ38, Aβ40 and Aβ42 levels were measured in a sandwich ELISA (Enzyme-Linked ImmunoSorbent Assay) using a combination of monoclonal antibody 6E10 (mAb 6E10) (sold by Covance® under the reference SIG-39320) and biotinylated polyclonal Aβ38, Aβ40 or Aβ42 antibodies (provided by Dr. P.D. Mehta, IBR, Staten Island, USA).
A solution of 100 µl mAb 6E10 diluted in carbonate-bicarbonate buffer, pH 9.6, was coated in the wells of microtiter plates (Maxisorp™ sold by Nunc®) and incubated at 4°C overnight. The plates were then washed with PBST (PBS tablets sold by Gibco®) containing 0.05% Tween-20 (Sigma®), and blocked for 1 h with 1% BSA (Sigma®) in PBST (PBS tablets sold by Gibco®) containing 0.05 Tween-20 (Sigma®) to avoid nonspecific binding.
Following a washing step, samples were added and incubated for 2 hours at room temperature (RT) and then at 4°C overnight. Plates were then washed before incubation with biotinylated polyclonal antibody diluted in PBST (PBS tablets sold by Gibco®) containing 0.05 Tween-20 (Sigma®) + 0.5% BSA at room temperature for 75 minutes.
After a washing step, streptavidin-horseradish peroxidase conjugate (Streptavidin poly-HRP, Thermo Scientific Pierce®), diluted in PBS + 1% BSA, was added and incubation was carried out for 45 min at room temperature. After washing, 100 µl of o-phenylenediamine dihydrochloride (OPD tablets, Invitrogen®) diluted in citrate buffer pH 5.0 were added. The reaction was stopped after 15 min with the addition of 100 µl 1 N sulfuric acid.
A range of known concentrations of Aβ38, Aβ40 and Aβ42, ranging from 0.01 to 10 ng/mL for Aβ38 and Aβ42, and ranging from 0.001 to 10 ng/mL for Aβ40, were use as a reference scale to determine the concentrations of Aβ38, Aβ40 and Aβ42 obtained.
(§3) The optical density was finally measured at 490 nm in a microELISA reader (sold by BioTek Instrument, reference E1 800, Gen 5 software).
The EC50 of the molecules tested were thus calculated.

[2] = test system: Aβ38; assay: Sandwich ELISA measurement of Aβ38 levels in supernatant of treated N2a-APP695 cells; format: cell-based, Mouse
Method: as §1, with “8 mL of fresh medium were added to the cell suspension, and the mix was centrifuged for 3 min at 1,000 rpm. The cell pellet was resuspended in fresh medium before seeding (1/10 dilution) in new flasks.” left out
(§4) The N2a-APP695 cells were seeded at 10.000 cells/well in a 96 well plate with modified media (0.5% FBS) and incubated overnight. Cells were treated with fresh media comprising different compounds according to the invention (equal quantity of DMSO sold by Sigma®). […]
as §2, with “USA). […]” for “USA).”
as §3

[3] = test system: Aβ42; assay: Effect of γ-secretase inhibitors/modulator on Aftin-induced production of Aβ42; format: cell-based; settings: for IC50: γ-secretase inhibitor, Aftin-induced production
Description: (§5) To investigate the importance of γ-secretases in the effects of Aftins according to the invention, two potent pharmacological inhibitors of γ-secretases, DAPT (N-[(3,5-Difluorophenyl)acetyl]-L-alanyl-2-phenyl]glycine-1,1-dimethylethyl ester) and BMS 299897 were used.

[4] = test system: Aβ38; assay: Effect of γ-secretase inhibitors/modulator on Aβ38 level in Aftin-treated cells; format: cell-based; settings: for IC50: γ-secretase inhibitor, Aftin-treated cells
Description: as §5

[5] = test system: Aβ40; assay: Sandwich ELISA measurement of Aβ40 levels in supernatant of treated N2a-APP695 cells; format: cell-based, Mouse
Method: as §1, with “8 mL of fresh medium were added to the cell suspension, and the mix was centrifuged for 3 min at 1,000 rpm. The cell pellet was resuspended in fresh medium before seeding (1/10 dilution) in new flasks.” left out
as §4
as §2, with “USA). […]” for “USA).”
as §3

[6] = test system: N2a-APP695 cells; assay: MTS cell viability assay in the same wells as the ELISA
Method: To measure cell viability, the MTS assay (CellTiter 96® AQueous One Solution Cell Proliferation Assay, Promega) was used in the same wells as the capture ELISA assay. 20µl of MTS reagent (3-(4,5-dimethylthiazol-2-yl)-5-(3-carboxymethoxyphenyl)-2-(4-sulfophenyl)-2H-tetrazolium) was added in each well containing 100µl of media and incubation was then proceeded for 3 hours (37°C, 5% CO2 and 95% humidity). Measurements were made on OD 490Δ630 nm (excitation and emission wavelengths) using a microELISA reader (BioTek Instrument, El 800, Gen 5 software).

[7] = test system: γ-secretases; settings: read-out: reported IC50 values on γ-secretases; cited from earlier work
[8] = test system: Aβ40; assay: Effect of γ-secretase inhibitors on Aβ40 level in Aftin-treated cells; format: cell-based; settings: γ-secretase inhibitor
Description: as §5

[9] = N2a-APP695 cells, 18 hours, dose-dependent, Figure 3
[10] = N2a-APP695 cells, 1 µM added simultaneously with increasing concentrations of Aftin-5

Aβ42 regulation [3, 10]: down-regulation | effect on Aftin-5 induced Aβ42 up-regulation and Aβ38 down-regulation ([3]; N2a-APP695 cells, added 1 h prior to 100 µM Aftin-5, dose dependent, Figure 4): inhibition of Aftin-5 effect
SMILES: CCN(CC)c1ccc(C)c(Nc2nc(-c3ccc(-n4cnc(C)c4)cc3)cs2)c1 ['Torrey Pines' compound, reference compound]
Aβ42 production [1, 9]: down-regulates | Aβ38 level [2, 9]: up-regulation | Aβ38 regulation [4, 10]: up-regulation | Aβ40 production [5, 9]: down-regulates

EC50 ([1]; Mus musculus, N2a-APP695 cells, 18h incubation, ELISA assay, read-out: EC50 (µM) at inducing Aβ42 production): 10.6 µM
SMILES: CC[C@H](CO)Nc1nc(N(C)c2ccccc2)c2ncn(C(C)C)c2n1 [Aftin-5, (2R)-2-[[9-isopropyl-6-(N-methylanilino)purin-2-yl]amino]butan-1-ol]
increase of the levels of Aβ42 production ([1]; dose-response curves, Figure 1, 18 hours, up to): > 900% | Toxicity ([6]; MTS assay, N2a-APP695 cells, class symbol): - ("-" means that the tested compound is non toxic with a concentration higher than 100 µM) | cytotoxic effects on cells ([6]; highest concentration tested (150 µM) or longest exposure (5 days)): did not show any cytotoxic effects | levels of Aβ38, decrease ([2]; dose-response, in parallel to the increase of Aβ42): > 70% | levels of Aβ40, maximum increase ([5]; dose-response curves, Figure 1, 18 hours): ≤ 40%

IC50 [8]: 55.9 nM | IC50 [3]: 28.8 nM | IC50 [4]: 88 nM
SMILES: C[C@H](c1ccc(F)cc1CCCC(=O)O)N(c1cc(F)ccc1F)S(=O)(=O)c1ccc(Cl)cc1 [BMS 299897]
IC50 [7]: 8 to 300 nM

IC50 [8]: 61.8 nM | IC50 [3]: 42.5 nM | IC50 [4]: 112 nM
SMILES: C[C@H](NC(=O)Cc1cc(F)cc(F)c1)C(=O)N[C@H](C(=O)OC(C)(C)C)c1ccccc1 [DAPT]
IC50 [7]: 25 to 56 nM
